The source of these data is US8637040B2, “Genus-wide chlamydial peptide vaccine antigens” (priority 2008, dated 2014).

The test system of one assay is Pep4, Pep7, Pep8, Pep10. Put plainly: Cross-reactivity between peptides in ELISA. As to conditions: sera of mice immunized with a single peptide. The class given is binding. Here is the method: Blood was collected prior to immunizations and prior to the two boosts. Sera were tested in ELISA. The ELISA method used in the present examples, in which many if not all the parameters and conditions may be varied or modified in ways that are completely conventional in the art, is described below. • 1. 96 well plates (Immulon HBX4) were coated with 50 μl of diluted antigen (peptides at 1 μg/well made in carbonate buffer) and incubated overnight at 4° C. • 2. Unbound antigen was removed by flicking the contents of the plate into a sink without further washing. • 3. Non-specific binding was blocked or prevented by adding 300 μL/well of 4% BSA/PBS-Tween 20 (0.05%). This was allowed to incubate for 2 hour at room temperature. • 4. The plates were washed once with PBS-Tween 20 (0.05%) and 50 μl of primary antibody was added per well at appropriate dilutions. When using serum, the starting dilution was 1:40 and was further diluted by doublings to 1:80, 1:160, and 1:320 (or higher as desired). Plates were incubated for 1 hour at 37° C. • 5. Plates were washed three times with PBS-Tween (0.05%) as above and 100 μl of secondary antibody was added per well at appropriate dilutions. For alkaline phosphatase-conjugated goat anti-mouse IgG-AP, a dilution of 1:500 was used here. Plates were incubated for 1 hour at 37° C. • 6. Plates were again washed three times as above and 200 μl of substrate solution for Alkaline phosphatase (p-nitro phenyl phosphate or pNPP) was added at a concentration of 5 mg/ml. The color reaction was read in an automated microplate reader at a frequency of […] and the absorbance (or optical density) was registered (referred to as A405 or OD405) Several important observations were made in these tests against the 4 peptides: (a) all 4 peptides were immunogenic and induced increasing anti-peptide responses with subsequent boosts in all mice (except in one non-responder) (FIG. 3). […] See also FIG. 16A-16B
Both of these are category #1 peptides. […] That supports the notion that CDR1 and CDR3 of mAb2 are antigenically distinct.

Another assay has as its system chlamydia. Description: Gross anatomical observation of genital tract inflammation after challenge. In kind it is in vivo, mouse. The note with it: female mice primed and boosted twice SC, necropsy ~28 days post-challenge, vs adjuvant-only control. From the text:
FIG. 15A-15C is a set of three photographs showing the gross morphology of tissues of the female reproductive tract of mice immunized and then challenged 28 days earlier with Pep4 or Pep7. Mice had been primed and boosted twice SC, as above, and were challenged with chlamydia 2 weeks later, rechallenged and sacrificed 4 weeks after re-challenge. Inflamed genital tracts outlined in dashed lines.
Genital tracts were exposed at necropsy ˜28 days post-challenge to score inflammatory changes (and then removed for histological analysis). […] Representative examples for recipients of Peptides 4 and 7 are shown in the center and right panels, respectively. Yellow arrows point to uterine horns (which are further demarcated with dashed lines). It is evident that the peptide immunogens reduced the gross pathology of the genital tract even weeks after challenge. This has been reproduced in a second experiment in which control mice received an irrelevant peptide instead of Peptides 4 or 7. Based on what is known in the art from other contexts, the histopathological results are expected to be consistent with these gross anatomical observations.

For a further assay, the system named is mice. Put plainly: Anti-Pep4 ELISA after SC immunization with free vs. PLA-microencapsulated Pep4. The class given is in vivo, mouse. The note with it: SC x 3; free Pep4 40 μg, Pep4-MP 10, 20 and 40 μg. As to the method:
FIG. 17A-17F show results in ELISA of sera of mice immunized SC with various doses of the Pep4 as immunogen antigen either as free peptide or encapsulated in PLA microparticles (Pep4-MP). MP's were loaded at levels of between about 7.5 and about 9 μg peptide per mg PLA. Δ-Δ: results of pre-bleeds (before immunization). (▴-▴: results after a single primary immunization. ◯-◯: results after 1st boost. ●-●: results after 2nd boost. ▾-▾: results at the time of terminal bleed (day 28). Each point represents the mean absorbance value (OD405) for the sera of 4 or 5 individual mice of the designated group.
Additional studies were conducted to evaluate and compare the effects of immunization with the present peptides in free vs. microencapsulated form in PLA microparticles (MPs). Results are shown in FIGS. 17, 18A-18F and 19A-19B.
Mice were immunized subcutaneously 3 times (primary, 1st first boost at day 14, 2nd boost at day 28) according to a schedule shown below with the indicated peptide antigen or soluble mAb2 polypeptide or were control animals that were infected but not immunized (relevant for FIG. 18A-F). Free Pep4 peptide was tested at the 40 μg dose, whereas Pep4-MP was tested at 10, 20 and 40 μg doses. Blood was collected before each immunization and at the end of the experiment (day +28).

Turning to AFPQFRSATLLL [Pep4], the “cross-reactivity of raised Abs with Pep7 (ELISA)” value with Pep4, Pep7, Pep8, Pep10 is recorded as “cross reacted”. In the assay on chlamydia, the “gross inflammation / pathology of the genital tract” value is “not nearly as inflamed”. Also, the “anti-Pep4 antibody responses (ELISA)” value with mice was “not as immunogenic as encapsulated Pep4 at equal or lower doses”.
